From patent publication US9745283B2, “Uracil derivatives as AXL and c-MET kinase inhibitors” (priority 2011, dated 2017)

Target: recombinant human baculovirus-expressed cMET (Homo sapiens (Human), UniProt P08581)
Assay: C-MET Kinase Assay (HTRF KinEASE)
Format: biochemical
Conditions: average of two or more determinations; read-out: c-MET IC50
Description: The cMET kinase assay was performed in 384-well Fluotrac™ 200 HiBase microplates using the HTRF KinEASE™ assay described above for AXL except that the assay volume was reduced to half. Enzyme concentration was 8 ng/mL of recombinant human baculovirus-expressed cMET while the substrate concentrations were 0.1 μM and 0.02 μM for the biotinylated peptide and ATP, respectively. Instead of the Multidrop Combi, the BioRAPTR® FRD microfluidic workstation (Beckman Coulter, Brea, Calif.) was utilized for reagent additions.
Inhibition curves for compounds were generated by plotting percent control activity versus log 10 of the concentration of compound. IC50 values were calculated by nonlinear regression using the sigmoidal dose-response (variable slope) equation in GraphPad Prism as follows: y=bottom+(top−bottom)/(1+10(log IC50−x)*Hill Slope) where y is the % kinase activity at a given concentration of compound, x is the logarithm of the concentration of compound, bottom is the % of control kinase activity at the highest compound concentration tested, and top is the % of control kinase activity at the lowest compound concentration examined. The values for bottom and top were fixed at 0 and 100, respectively.

Row | Compound | IC50
1 | COc1cc2nccc(Oc3ccc(NC(=O)c4cn(CCOCc5ccccc5)c(=O)n(-c5ccc(F)cc5)c4=O)cc3)c2cc1OC [Example 19, 1-(2-Benzyloxyethyl)-3-(4-fluoro-phenyl)-2,4-dioxo-1,2,3,4-tetrahydropyrimidine-5-carboxylic acid [4-(6,7-dimethoxyquinolin-4-yloxy)-phenyl]-amide] | 0.01 to 0.1 µM
2 | C=CCn1c(=O)c(C(=O)Nc2ccc(Oc3ccnc4cc(OC)c(OC)cc34)c(F)c2)nn(C)c1=O [Example 124, 4-Allyl-2-methyl-3,5-dioxo-2,3,4,5-tetrahydro-[1,2,4]triazine-6-carboxylic acid [4-(6,7-dimethoxy-quinolin-4-yloxy)-3-fluoro-phenyl]-amide] | 0.01 to 0.1 µM
3 | CCn1cc(C(=O)Nc2ccc(Oc3ccnc4cc(OC)c(OC)cc34)c(C)c2C)c(=O)n(-c2ccc(F)cc2)c1=O [Example 157, 1-Ethyl-3-(4-fluoro-phenyl)-2,4-dioxo-1,2,3,4-tetrahydro-pyrimidine-5-carboxylic acid [4-(6,7-dimethoxy-quinolin-4-yloxy)-2,3-dimethyl-phenyl]-amide] | 0.101 to 1 µM
4 | COc1cc2nccc(Oc3ccc(NC(=O)c4cn(CC=C(C)C)c(=O)n(-c5ccc(F)cc5)c4=O)cc3F)c2cc1OC [Example 15, 3-(4-Fluorophenyl)-1-(3-methyl-but-2-enyl)-2,4-dioxo-1,2,3,4-tetrahydropyrimidine-5-carboxylic acid [4-(6,7-dimethoxyquinolin-4-yloxy)-3-fluorophenyl]-amide] | 0.01 to 0.1 µM
5 | CCn1cc(C(=O)N(C)c2ccc(Oc3ccnc4cc(OC)c(OC)cc34)c(F)c2)c(=O)n(-c2ccc(F)cc2)c1=O [Example 48, 1-Ethyl-3-(4-fluorophenyl)-2,4-dioxo-1,2,3,4-tetrahydropyrimidine-5-carboxylic acid [4-(6,7-dimethoxyquinolin-4-yloxy)-3-fluoro-phenyl]-methyl-amide] | 0.101 to 1 µM
6 | COc1cc2nccc(Oc3ccc(NC(=O)c4cn(CCC5CCCCC5)c(=O)n(-c5ccc(F)cc5)c4=O)cc3F)c2cc1OC [Example 80, 1-(2-Cyclohexyl-ethyl)-3-(4-fluoro-phenyl)-2,4-dioxo-1,2,3,4-tetrahydro-pyrimidine-5-carboxylic acid [4-(6,7-dimethoxy-quinolin-4-yloxy)-3-fluoro-phenyl]-amide] | 0.101 to 1 µM
7 | COc1cc2nccc(Oc3ccc(NC(=O)c4cn(C(C)C)c(=O)n(-c5ccc(F)cc5)c4=O)cc3)c2cc1C#N [Example 56, 3-(4-Fluorophenyl)-1-isopropyl-2,4-dioxo-1,2,3,4-tetrahydropyrimidine-5-carboxylic acid [4-(6-cyano-7-methoxy-quinolin-4-yloxy)-phenyl]-amide] | 0.01 to 0.1 µM
8 | COc1cc2nccc(Oc3ccc(NC(=O)c4cn(CC5CC5)c(=O)n(CC5CC5)c4=O)cc3F)c2cc1OC [Example 95, 1,3-Bis-cyclopropylmethyl-2,4-dioxo-1,2,3,4-tetrahydro-pyrimidine-5-carboxylic acid [4-(6,7-dimethoxy-quinolin-4-yloxy)-3-fluoro-phenyl]-amide] | 0.01 to 0.1 µM
9 | COc1cc2nccc(Oc3ccc(NC(=O)c4cn(CCOCc5ccccc5)c(=O)n(-c5ccc(F)cc5)c4=O)cc3F)c2cc1OC [Example 10, 1-(2-Benzyloxyethyl)-3-(4-fluorophenyl)-2,4-dioxo-1,2,3,4-tetrahydropyrimidine-5-carboxylic acid [4-(6,7-dimethoxyquinolin-4-yloxy)-3-fluorophenyl]-amide] | 0.01 to 0.1 µM
10 | COc1cc2nccc(Oc3ccc(NC(=O)c4nn(CC5CC5)c(=O)n(-c5ccc(F)cc5)c4=O)cc3F)c2cc1OC [Example 133, 2-Cyclopropylmethyl-4-(4-fluorophenyl)-3,5-dioxo-2,3,4,5-tetrahydro-[1,2,4]triazine-6-carboxylic acid [4-(6,7-dimethoxy-quinolin-4-yloxy)-3-fluoro-phenyl]-amide] | 0.01 to 0.1 µM
11 | CCn1cc(C(=O)Nc2ccc(Oc3ccnc4cc(OCc5ccccc5)c(OC)cc34)c(F)c2)c(=O)n(-c2ccc(F)cc2)c1=O [Example 40, 1-Ethyl-3-(4-fluorophenyl)-2,4-dioxo-1,2,3,4-tetrahydropyrimidine-5-carboxylic acid [4-(7-benzyloxy-6-methoxyquinolin-4-yloxy)-3-fluorophenyl]-amide] | 0.01 to 0.1 µM
12 | COc1cc2nccc(Oc3ccc(NC(=O)c4cn(C(C)C)c(=O)n(-c5ccc(F)cc5)c4=O)c(N(C)C)c3)c2cc1OC [Example 154, 3-(4-Fluoro-phenyl)-1-isopropyl-2,4-dioxo-1,2,3,4-tetrahydro-pyrimidine-5-carboxylic acid [4-(6,7-dimethoxy-quinolin-4-yloxy)-2-dimethylamino-phenyl]-amide] | 0.101 to 1 µM
13 | CCn1cc(C(=O)Nc2ccc(Oc3ccnc4cc(O)c(OC)cc34)c(F)c2)c(=O)n(-c2ccc(F)cc2)c1=O [Example 42, 1-Ethyl-3-(4-fluorophenyl)-2,4-dioxo-1,2,3,4-tetrahydropyrimidine-5-carboxylic acid [3-fluoro-4-(7-hydroxy-6-methoxyquinolin-4-yloxy)phenyl]-amide] | 0.01 to 0.1 µM
14 | CCn1cc(C(=O)Nc2ccc(Oc3ccnc4cc(OCCCN5CCOCC5)c(OC)cc34)c(F)c2)c(=O)n(-c2ccc(F)cc2)c1=O [Example 43, 1-Ethyl-3-(4-fluorophenyl)-2,4-dioxo-1,2,3,4-tetrahydropyrimidine-5-carboxylic acid {3-fluoro-4-[6-methoxy-7-(3-morpholin-4-yl-propoxy)quinolin-4-yloxy]phenyl}-amide] | 0.01 to 0.1 µM
15 | CCCCCn1cc(C(=O)Nc2ccc(Oc3ccnc4cc(OC)c(OC)cc34)c(F)c2)c(=O)n(-c2ccc(F)cc2)c1=O [Example 36, 3-(4-Fluorophenyl)-2,4-dioxo-1-pentyl-1,2,3,4-tetrahydropyrimidine-5-carboxylic acid [4-(6,7-dimethoxyquinolin-4-yloxy)-3-fluorophenyl]-amide] | 0.01 to 0.1 µM
16 | COc1cc2nccc(Oc3ccc(NC(=O)c4cn(CC=C(C)C)c(=O)n(CC=C(C)C)c4=O)cc3F)c2cc1OC [Example 97, 1,3-Bis-(3-methyl-but-2-enyl)-2,4-dioxo-1,2,3,4-tetrahydro-pyrimidine-5-carboxylic acid [4-(6,7-dimethoxy-quinolin-4-yloxy)-3-fluoro-phenyl]-amide] | 0.101 to 1 µM
17 | COc1cc2nccc(Oc3ccc(NC(=O)c4cn(CC5CC5)c(=O)n(-c5ccc(F)cc5)c4=O)nc3)c2cc1OC [Example 35, 1-Cyclopropylmethyl-3-(4-fluorophenyl)-2,4-dioxo-1,2,3,4-tetrahydropyrimidine-5-carboxylic acid [5-(6,7-dimethoxyquinolin-4-yloxy)pyridin-2-yl]-amide] | 0.01 to 0.1 µM
18 | COc1cc2c(Oc3ccc(NC(=O)c4cn(C(C)C)c(=O)n(-c5ccc(F)cc5)c4=O)cc3F)ccnc2cc1O [Example 46, 3-(4-Fluorophenyl)-1-isopropyl-2,4-dioxo-1,2,3,4-tetrahydropyrimidine-5-carboxylic acid [3-fluoro-4-(7-hydroxy-6-methoxyquinolin-4-yloxy)-phenyl]-amide] | < 0.01 µM
19 | COc1cc2nccc(Oc3ccc(NC(=O)c4nn(C)c(=O)n(CC#CCO)c4=O)cc3F)c2cc1OC [Example 118, 4-(4-Hydroxy-but-2-ynyl)-2-methyl-3,5-dioxo-2,3,4,5-tetrahydro-[1,2,4]triazine-6-carboxylic acid [4-(6,7-dimethoxy-quinolin-4-yloxy)-3-fluoro-phenyl]-amide] | 0.101 to 1 µM
20 | COc1cc2nccc(Oc3ccc(NC(=O)c4cn(C(C)C)c(=O)n(C(C)C)c4=O)cc3F)c2cc1OC [Example 94, 1,3-Diisopropyl-2,4-dioxo-1,2,3,4-tetrahydro-pyrimidine-5-carboxylic acid [4-(6,7-dimethoxy-quinolin-4-yloxy)-3-fluoro-phenyl]-amide] | 0.01 to 0.1 µM
21 | CCn1cc(C(=O)Nc2ccc(Oc3ccnc4cc(OC)c(OC)cc34)c(F)c2)c(=O)n(C2CCCCC2)c1=O [Example 25, 3-Cyclohexyl-1-ethyl-2,4-dioxo-1,2,3,4-tetrahydropyrimidine-5-carboxylic acid [4-(6,7-dimethoxyquinolin-4-yloxy)-3-fluorophenyl]-amide] | 0.101 to 1 µM
22 | COc1cc2nccc(Oc3ccc(NC(=O)c4cn(C(C)C)c(=O)n(-c5ccc(F)cc5)c4=O)c(C)c3C)c2cc1OC [Example 158, 3-(4-Fluoro-phenyl)-1-isopropyl-2,4-dioxo-1,2,3,4-tetrahydro-pyrimidine-5-carboxylic acid [4-(6,7-dimethoxy-quinolin-4-yloxy)-2,3-dimethyl-phenyl]-amide] | 0.101 to 1 µM
23 | CCOc1cc2nccc(Oc3ccc(NC(=O)c4nn(CC)c(=O)n(-c5ccc(F)cc5)c4=O)cc3F)c2cc1OCC [Example 109, 2-Ethyl-4-(4-fluorophenyl)-3,5-dioxo-2,3,4,5-tetrahydro[1,2,4]triazine-6-carboxylic acid [4-(6,7-diethoxy-quinolin-4-yloxy)-3-fluoro-phenyl]-amide] | 0.01 to 0.1 µM
24 | COc1cc2nccc(Oc3ccc(NC(=O)c4cn(C(C)C)c(=O)n(-c5ccc(F)cc5)c4=O)cc3C)c2cc1OC [Example 163, 3-(4-Fluoro-phenyl)-1-isopropyl-2,4-dioxo-1,2,3,4-tetrahydro-pyrimidine-5-carboxylic acid [4-(6,7-dimethoxy-quinolin-4-yloxy)-3-methyl-phenyl]-amide] | 0.01 to 0.1 µM
